Source: patent publication US10961163B2, “Compositions and methods useful for enhancing the microbial conversion of nitrate into ammonium” (The Regents of the University of California, priority 2016, dated 2021)

tested on: microbial enrichment cultures; assay: Inhibitory potency (IC50) of inorganic compounds against growth and ammonium production, microbial enrichment with yeast extract; format: cell-based; settings: not given

| Compound | NH4^+ IC50/growth IC50 ratio |
| --- | --- |
| CC(=O)c1ccc(O)cc1 [4-Hydroxyacetophenone] | 1.3700 |
| Cl.N [Ammonium chloride] | 1.0157 |
| N.N.O.O=S(O)O [Ammonium sulfite monohydrate] | 2.0739 |
| O.O.O.O.O.[Cd+2].[Cd+2].[Cl-].[Cl-].[Cl-].[Cl-] [Cadmium chloride hemipentahydrate] | 0.2809 |
| [Ce+3].[Cl-].[Cl-].[Cl-] [Cerium(III) chloride] | 0.0189 |
| [Cl-].[Cs+] [Cesium chloride] | 30.1708 |
| O.O.O.O.O.O.[Cl][Cr]([Cl])[Cl] [Chromium(III) Chloride Hexahydrate] | 0.0003 |

same assay, conditions: microbial enrichment with complex carbon source (yeast extract), serial dilutions of inorganic compound; higher ratio favors ammonium production

| Compound | NH4^+ IC50/growth IC50 ratio |
| --- | --- |
| O=C1c2ccc(S(=O)(=O)O)cc2C(=O)c2cc(S(=O)(=O)O)ccc21 [AQDS, 9,10-Anthraquinone-2,7-disulphonic acid] | 6.4905 |

tested on: microbial enrichment cultures; assay: Ammonium production normalized by growth (NH4+/OD ratio) of microbial enrichment cultivated on individual carbon sources; format: cell-based; settings: not given

| Compound | Ammonium/OD ratio |
| --- | --- |
| CC(=O)[O-].[K+] [Potassium acetate] | 0.98 |
| O.O=C([O-])C(=O)[O-].[K+].[K+] [Potassium oxalate monohydrate] | 1.13 |
| Cl.Cl.NCCCCN [Putrescine Dihydrochloride] | 1.20 |
| O.O.O=C([O-])CC(O)(CC(=O)[O-])C(=O)[O-].[Na+].[Na+].[Na+] [Trisodium citrate dihydrate] | 1.73 |
| L-tyrosine disodium salt | 0.87 |

same assay, conditions: average of 8 independent cultures amended with varying concentrations of the carbon source; ammonium by colorimetric (Bertholet) assay, growth by OD 600

| Compound | Ammonium/OD ratio |
| --- | --- |
| CC(=O)N[C@H]1C(O)O[C@H](CO)[C@@H](O)[C@@H]1O (stereo partly drawn) [N-Acetyl-D-Glucosamine] | 1.07 |
| O=C1NC(=O)C(=O)N1 [Parabanic Acid] | 1.12 |
| C[C@@H](O)C(=O)[O-].[Na+] [Sodium D-Lactate] | 1.16 |
| O=C[O-].[Na+] [Sodium Formate] | 0.72 |
| O=C([O-])/C=C/C(=O)[O-].[Na+].[Na+] [Sodium Fumarate dibasic] | 0.81 |
| C[C@H](O)C(=O)[O-].[Na+] [Sodium L-Lactate] | 1.35 |
| CCCC(=O)[O-].[Na+] [Sodium butyrate] | 1.04 |
| CCCCCCCC(=O)[O-].[Na+] [Sodium octanoate] | 1.21 |
| CCC(=O)[O-].[Na+] [Sodium propionate] | 0.94 |
| CC(=O)C(=O)[O-].[Na+] [Sodium pyruvate] | 0.96 |
| O.O.O.O.O.O.O=C([O-])CCC(=O)[O-].[Na+].[Na+] [Sodium succinate dibasic hexahydrate] | 1.03 |
| OC[C@H]1O[C@@](CO)(O[C@H]2O[C@H](CO)[C@@H](O)[C@H](O)[C@H]2O)[C@@H](O)[C@@H]1O [Sucrose] | 1.07 |
| Cc1cn([C@H]2C[C@H](O)[C@@H](CO)O2)c(=O)[nH]c1=O [Thymidine] | 1.06 |
| Cc1c[nH]c(=O)[nH]c1=O [Thymine] | 1.13 |
| O=c1ccn([C@@H]2O[C@H](CO)[C@@H](O)[C@H]2O)c(=O)[nH]1 [Uridine] | 0.96 |
| OC[C@@H](O)[C@H](O)[C@@H](O)CO [Xylitol] | 1.13 |
| OC[C@H]1O[C@@H]2O[C@H]3[C@H](O)[C@@H](O)[C@@H](O[C@H]4[C@H](O)[C@@H](O)[C@@H](O[C@H]5[C@H](O)[C@@H](O)[C@@H](O[C@H]6[C@H](O)[C@@H](O)[C@@H](O[C@H]7[C@H](O)[C@@H](O)[C@@H](O[C@H]1[C@H](O)[C@H]2O)O[C@@H]7CO)O[C@@H]6CO)O[C@@H]5CO)O[C@@H]4CO)O[C@@H]3CO [a-Cyclodextrin] | 1.07 |
| O.O=C([O-])CCC(=O)C(=O)[O-].[Na+].[Na+] [a-Ketoglutaric acid disodium salt hydrate] | 1.26 |
| O[C@H]1[C@H](O)[C@@H](O)[C@H](O)[C@@H](O)[C@H]1O [m-Inositol] | 1.25 |
| D-Salicin | 1.35 |
| Gelatin | 0.85 |
